Legend:
CHO-K1 cells [1] = assay: Peptide induced cell lysis; assay type: cell-based; conditions: CHO-K1, normal cell culture conditions, no peptide (Figures 2 and 4)
CHO-K1 cells [2] = assay: Measurement of cell surface pH, CHO-K1; assay type: cell-based; conditions: from pH=8.4 to pH=6.90, medium pH=7.4
[3] = Peptide circular dichroism; assay type: physicochemical; conditions: secondary structure by CD, 25 °C
[4] = Peptide self-assembly and aggregation in solution; assay type: physicochemical
[5] = pH sensitivity of lytic activity; assay type: biochemical; conditions: ratio calculated from the average IC50 values of a peptide at pH=7.4 and pH=5.5

| Structure pH=6.5 [3] | Structure pH=7.4 [3] | Compound | pH sensitivity [5] | further results |
| --- | --- | --- | --- | --- |
|  |  | CO/C1=C\C(C)=C\[C@@H](C)[C@@H](O)[C@@H](C)C/C(C)=C/C=C/[C@H](OC)[C@@H]([C@@H](C)[C@@H](O)[C@H](C)[C@@]2(O)C[C@@H](O)[C@H](C)[C@@H](C(C)C)O2)OC1=O [Bafilomycin A1] |  | Effect on cell viability (CHO-K1 cells [1]): very limited effects on cell viability |
|  |  | Nc1ncnc2c1nc(Sc1ccc(Cl)cc1)n2[C@@H]1O[C@@H]2COP(=O)(O)O[C@H]2[C@H]1O [Peptide 8-CPT-cAMP, 8-CPT-cAMP] |  | Time to reduction of cell surface pH (CHO-K1 cells [2]): ≤ 30 minutes; Effect on cell viability (CHO-K1 cells [1]): no effects on the viability |
|  |  | FLGALFKALSKLL [PTP-7] |  | Cytotoxicity to A549 relative to CCD-13Lu (A549 and CCD-13Lu cells): equally active to both cells |
| Coil | α-helix | FLGALFRALSHLL [CL-7] | 2.2 | Aggregation at physiological pH ([4]; 40 µM peptide, 1,8-ANS 20 µM, excitation 369 nm, SEM at pH=7.4): underwent self-assembly at physiological pH; Stability of peptide aggregates under acidic conditions ([4]; 1,8-ANS 20 µM, 40 µM peptide, particle analysis at 80 µM): unstable and dissolved under acidic conditions |
| Coil | Coil | FLGALFRALSRLL [CL-1] | 1.2 |  |
| Coil | α-helix | WLGALFHALSKLL [CL-9] | 3.0 |  |
| Coil | α-helix | WLGALFKALSHLL [CL-10] | 2.5 |  |
| Coil | α-helix | WLGALFKALSHLLGHHPH [CL-22] | 13.8 |  |

Reference: paper PMC4265309 (Chemical biology & drug design, 2014)
